Measurements from patent US20140309419A1, “METHOD FOR ENHANCING THE THERMAL STABILITY OF IONIC COMPOUNDS” (Danmarks Tekniske Universite, priority 2011, published 2014).
Marks after values point to notes of the source that are not given here.

Legend:
[1] = Thermal stability by TGA, inflection point method (TA2950 TGA, 5° C./min, dried air); type: physicochemical; settings: not supported/neat
From the text: (§1) The term “upper operating temperature” as used herein refers to the highest temperature to which the ionic compound can be heated without undergoing thermal degradation. This temperature is usually and routinely measured by Thermo Gravimetric Analysis (TGA) and/or Differential Scanning calorimetry (DSC).

[2] = Thermal stability by TGA, T5% onset method (Mettler-Toledo TGA/DSC, 5° C./min, nitrogen); type: physicochemical; settings: not supported/neat
From the text: as §1

[3] = Thermal stability by TGA, supported vs. unsupported, evaluation method not marked
Protocol: To test for such influence, adsorption experiments with butylmethylimidazolium acetate [BMIM][OAc] on four different porous silica types was carried out (FIG. 7a, 7b). The silicas had the following pore diameters: PG2000 (pore diameter 2000 Å), PG500 (pore diameter 500 Å), PG75 (pore diameter 75 Å) and MCM-41 (pore diameter 50 Å).
The silicas had the following pore diameters: PG2000 (pore diameter 2000 Å), PG500 (pore diameter 500 Å) and PG75 (pore diameter 75 Å).
Thermal stability was measured by using thermogravimetric analysis (TGA), with isocratic heating at 5° C. min^−1 under an inert nitrogen and/or dried air atmosphere. The decomposition temperatures were determined from both the T5% onset (onset temperature for 5% decomposition) in an isocratic TGA experiment, and from the inflection point (temperature at the inflection point of TGA curve, which indicates the point where the degradation rate is maximum). For T5% onset measurements, thermal stability was determined in a Mettler-Toledo Star^e TGA/DSC unit by heating from 25° C. to 800° C. with a heating rate of 5° C./min under nitrogen. For inflection point measurements, thermal stability was determined using a TA2950 TGA unit by heating from 25° C. to 800° C. with a heating rate of 5° C./min under dried air.

[4] = 10% (wt/wt) on PG75 silica (pore diameter 75 Å)
[5] = 10% (wt/wt) on PG500 silica (pore diameter 500 Å)
[6] = 10% (wt/wt) on PG2000 silica (pore diameter 2000 Å)

SMILES	Thermal Stability (inflection point) [1]	enhancement of thermal stability vs. unsupported [3, 4]	enhancement of thermal stability vs. unsupported [3, 5]	enhancement of thermal stability vs. unsupported [3, 6]	further results
CCCCC(CC)COC(=O)CC(C(=O)OCC(CC)CCCC)S(=O)(=O)O (centres unmarked) [Dioctylsulfosuccinic Acid [3], Dioctylsulfosuccinic Acid]	161.86^b ° C.	–	–	–	–
CC(C)Cc1ccc(C(C)C(=O)O)cc1 (centres unmarked) [Ibuprofene (free acid), Ibuprofene]	–	–	–	–	Thermal Stability (T5% onset) [2]: 154.7^a ° C.
CC[N+](CC)(CC)CC.O=C(O)CNCP(=O)([O-])O [Tetraethylammonium Glyphosate [5], Tetraethylammonium Glyphosate]	149.76^b ° C.	–	–	–	–
CCCCCCCCCCCCCCCC[N+](C)(C)C.Nc1nc2c(ncn2COCCO)c(=O)[n-]1 [Trimethylhexadecylammonium acyclovir [2], Trimethylhexadecylammonium Acyclovir]	188.60^b ° C.	–	–	–	–
CCCCn1cc[n+](C)c1.[Cl-] [[BMIM][Cl], butylmethylimidazolium chloride]	–	no enhancement of thermal stability	no enhancement of thermal stability	no enhancement of thermal stability	–
CC(=O)[O-].CCCCn1cc[n+](C)c1 [[BMIM][OAc], butylmethylimidazolium acetate]	–	significant enhancement of the thermal stability	no enhancement of thermal stability	no enhancement of thermal stability	enhancement of thermal stability vs. unsupported ([3]; 10% (wt/wt) on MCM-41 silica (pore diameter 50 Å)): significant enhancement of the thermal stability
